Reference: article PMC6151560, “Antibacterial and Antitubercular Activities of Cinnamylideneacetophenones” (Molecules : A Journal of Synthetic Chemistry and Natural …, 2017)
Converted amounts (≈) assume the structure as drawn. Like-named read-outs stand apart in the source and are kept apart here.

What was measured:
[1] = system: Mycobacterium tuberculosis H37Rv (ATCC 27294); test: Antitubercular REMA (Resazurin Microtiter Assay); type: cell-based; settings: M. tuberculosis H37Rv, REMA, 7 days, lowest concentration giving 90% inhibition of growth, read-out: Mt MIC
[2] = system: Escherichia coli (ATCC 10536); test: Antibacterial broth microdilution (MIC), E. coli; settings: for MIC: ATCC10536, 24 h, read-out: Ec MIC
[3] = system: Staphylococcus aureus (ATCC 14458); test: Antibacterial broth microdilution (MIC/MBC), S. aureus; settings: for MIC: ATCC14458, 24 h; for MBC: ATCC14458, read-out: Sa MBC
[4] = system: Streptococcus mutans (ATCC 25175); test: Antibacterial broth microdilution (MIC/MBC), S. mutans; settings: for MIC: ATCC25175, 24 h, read-out: Sm MIC, Streptococcus mutans, broth microdilution, 24 h, tested 3.9 to 500 µM; for MBC: ATCC25175, read-out: Sm MBC
[5] = system: Pseudomonas aeruginosa (ATCC 15442); test: Antibacterial broth microdilution (MIC), P. aeruginosa; settings: for MIC: ATCC15442, 24 h, read-out: Pa MIC
[6] = Partition coefficient log Po/w by HPLC-PDA (OECD method); settings: for chromatographic logP: n-octanol/water (from HPLC retention on a C-18 column)
[7] = system: Streptococcus sanguinis (ATCC 10557); test: Antibacterial broth microdilution (MIC/MBC), S. sanguinis; settings: for MIC: ATCC10557, 24 h; for MBC: ATCC10557, read-out: Ss MBC
[8] = DPPH radical scavenging ability; settings: at 1600, 800, 400, and 200 µM; DPPH 100 μM, 30 min, 25 °C
Text: The low selectivity of the cinnamylideneacetophenones 3 and 4 can be correlated with their phenolic nature. Studies report the ability of phenolic compounds to act on widespread radical processes shared by eukaryotic and prokaryotic cells. We hypothesized this behavior may be responsible by simultaneous activity toward bacteria and pulmonary cells. Therefore, we evaluated the radical scavenging ability of 3 and 4 using DPPH (2,2-diphenyl-1-picrylhydrazyl) protocol. […] Altogether, low selectivity of 3 and 4 cannot be strongly related to radical processes. Quercetin and gallic acid were used as positive controls due to their phenolic nature and potent radical scavenging ability.
Radical scavenging activity of compounds 3 and 4 was determined using 2,2-diphenyl-1-picrylhydrazyl (DPPH). Aliquots of 10 µL of 3, 4, and positive controls (quercetin and gallic acid) at concentrations 1600, 800, 400, and 200 μM (in EtOH) were individually added in 190 µL DPPH (100 μM). The mixtures were incubated in the dark at 25 °C for 30 min. Remaining DPPH was determined spectroscopically at 490 nm by blanking against absolute ethanol. Radical scavenging ability was expressed by using mean values obtained from triplicates as the percentage of radicals reduced by calculating the following equation: DPPH scavenging % = [1 − (Asample/A) × 100], where A is test absorbance without sample (only EtOH and DPPH) and Asample is test absorbance with compounds.

[9] = Mycobacterium tuberculosis, 168 h
[10] = read-out: Sa MIC, Staphylococcus aureus, broth microdilution, 24 h, tested 3.9 to 500 µM
[11] = read-out: Ss MIC, Streptococcus sanguinis, broth microdilution, 24 h, tested 3.9 to 500 µM
[12] = broth microdilution, 24 h, tested 3.9 to 500 µM

Molecule | MIC [1, 9] | MIC [2] | MIC [3, 10] | MIC [4] | MIC [5] | chromatographic logP [6] | MIC [7, 11] | further results
Cc1ccc(C(=O)/C=C/C=C/c2ccccc2)cc1 [Compound 18, (2E,4E)-1-(4-methylphenyl)-5-phenylpenta-2,4-dien-1-one] | 57.2 to 70.9 µM (≈ 14.2 to 17.6 µg/mL) | > 500 µM | > 500 µM | > 500 µM | > 500 µM | 3.5 | > 500 µM | MIC [1]: 70.9 µM (≈ 17.6 µg/mL)
O=C(/C=C/C=C/c1ccccc1)c1cccc(C(F)(F)F)c1 [Compound 14, (2E,4E)-1-(3-(trifluoromethyl)phenyl)-5-phenylpenta-2,4-dien-1-one] | > 200 µM | > 500 µM | > 500 µM | > 500 µM | > 500 µM | 3.7 | > 500 µM | –
Cc1cccc(C(=O)/C=C/C=C/c2ccccc2)c1 [Compound 17, (2E,4E)-1-(3-methylphenyl)-5-phenylpenta-2,4-dien-1-one] | > 200 µM | > 500 µM | > 500 µM | > 500 µM | > 500 µM | 3.6 | > 500 µM | –
Nc1cccc(C(=O)/C=C/C=C/c2ccccc2)c1 [Compound 5, (2E,4E)-1-(3-aminophenyl)-5-phenylpenta-2,4-dien-1-one] | > 200 µM | > 500 µM | > 500 µM | 313 µM (≈ 78 µg/mL) | > 500 µM | 2.5 | > 500 µM | MBC [4]: 313 µM (≈ 78 µg/mL)
(2E,4E)-1-(3,4-methylenedioxy)-5-phenylpenta-2,4-dien-1-one [Compound 8] | – | – | – | – | – | – | – | Ec MIC ([2]; broth microdilution, 24 h): >500 µM; Sa MIC [3, 12]: >500 µM; Sm MIC [4, 12]: >500 µM; Pa MIC ([5]; broth microdilution, 24 h): >500 µM; log Po/w ([6]; n-octanol/water, HPLC-PDA method, MeOH:H2O (3:1)): 3.2; Ss MIC [7, 12]: >500 µM
COc1ccc(C(=O)/C=C/C=C/c2ccccc2)cc1 [Compound 7, (2E,4E)-1-(4-methoxyphenyl)-5-phenylpenta-2,4-dien-1-one] | 57.2 to 70.9 µM (≈ 15.1 to 18.7 µg/mL) | > 500 µM | ≥ 296 µM | ≥ 296 µM | > 500 µM | 3.2 | ≥ 296 µM | MIC [1]: 66.6 µM (≈ 17.6 µg/mL)
O=C(/C=C/C=C/c1ccccc1)c1cccc([N+](=O)[O-])c1 [Compound 15, (2E,4E)-1-(3-nitrophenyl)-5-phenylpenta-2,4-dien-1-one] | > 200 µM | > 500 µM | > 500 µM | > 500 µM | > 500 µM | 3.3 | > 500 µM | –
O=C(/C=C/C=C/c1ccccc1)c1ccc(Cl)c(Cl)c1 [Compound 13, (2E,4E)-1-(3,4-dichlorophenyl)-5-phenylpenta-2,4-dien-1-one] | > 200 µM | > 500 µM | > 500 µM | > 500 µM | > 500 µM | 4.1 | > 500 µM | –
O=C(O)c1cc(O)c(O)c(O)c1 [gallic acid, reference compound] | – | – | – | – | – | – | – | percentages of DPPH scavenging ability [8]: ≥ 95%
[H]/N=C(\N/C(=N/[H])NCCCCCCNC(=N)NC(=N)Nc1ccc(Cl)cc1)Nc1ccc(Cl)cc1 [CHX, chlorhexidine, reference compound] | – | – | – | 2.4 µM (≈ 1.21 µg/mL) | 19.4 µM (≈ 9.81 µg/mL) | – | 4.7 µM (≈ 2.38 µg/mL) | MBC [4]: 4.7 µM (≈ 2.38 µg/mL); MBC [7]: 9.5 µM (≈ 4.8 µg/mL)
O=C(/C=C/C=C/c1ccccc1)c1ccc([N+](=O)[O-])cc1 [Compound 16, (2E,4E)-1-(4-nitrophenyl)-5-phenylpenta-2,4-dien-1-one] | > 200 µM | > 500 µM | > 500 µM | > 500 µM | > 500 µM | 3.2 | > 500 µM | –
COc1cc(C(=O)/C=C/C=C/c2ccccc2)ccc1O [Compound 9, (2E,4E)-1-(4-hydroxy-3-methoxyphenyl)-5-phenylpenta-2,4-dien-1-one] | 83.5 µM (≈ 23.4 µg/mL) | > 500 µM | 279 µM (≈ 78.2 µg/mL) | > 500 µM | > 500 µM | 2.7 | > 500 µM | MBC [3]: 279 µM (≈ 78.2 µg/mL)
COc1cccc(C(=O)/C=C/C=C/c2ccccc2)c1 [Compound 6, (2E,4E)-1-(3-methoxyphenyl)-5-phenylpenta-2,4-dien-1-one] | > 200 µM | > 500 µM | ≥ 296 µM | ≥ 296 µM | > 500 µM | 3.3 | ≥ 296 µM | MBC [3]: 296 µM (≈ 78.2 µg/mL)
O=C(/C=C/C=C/c1ccccc1)c1ccc(F)cc1 [Compound 10, (2E,4E)-1-(4-fluorophenyl)-5-phenylpenta-2,4-dien-1-one] | 57.2 to 70.9 µM (≈ 14.4 to 17.9 µg/mL) | > 500 µM | > 500 µM | > 500 µM | > 500 µM | 3.3 | > 500 µM | MIC [1]: 67.4 µM (≈ 17 µg/mL)
O=c1c(O)c(-c2ccc(O)c(O)c2)oc2cc(O)cc(O)c12 [Quercetin, reference compound] | – | – | – | – | – | – | – | percentages of DPPH scavenging ability [8]: ≥ 95%
CC1(C)S[C@@H]2[C@H](NC(=O)Cc3ccccc3)C(=O)N2[C@H]1C(=O)O [PEN, Penicillin G, reference compound] | – | 118 µM (≈ 39.5 µg/mL) | – | – | – | – | 0.4 µM (≈ 0.134 µg/mL) | MBC [7]: 0.4 µM (≈ 0.134 µg/mL)
NNC(=O)c1ccncc1 [ISO, isoniazid, reference compound] | 0.3 µM (≈ 0.0411 µg/mL) | – | – | – | – | – | – | –
CN[C@H](CC(C)C)C(=O)N[C@H]1C(=O)N[C@@H](CC(N)=O)C(=O)N[C@H]2C(=O)N[C@H]3C(=O)N[C@H](C(=O)N[C@H](C(=O)O)c4cc(O)cc(O)c4-c4cc3ccc4O)[C@H](O)c3ccc(c(Cl)c3)Oc3cc2cc(c3O[C@@H]2O[C@H](CO)[C@@H](O)[C@H](O)[C@H]2O[C@H]2C[C@](C)(N)[C@H](O)[C@H](C)O2)Oc2ccc(cc2Cl)[C@H]1O [VAN, vancomycin, reference compound] | – | 53.8 µM (≈ 78 µg/mL) | – | – | – | – | – | MIC ([3]; read-out: Sa MIC): 3.3 µM (≈ 4.78 µg/mL); MBC [3]: 6.8 µM (≈ 9.86 µg/mL); MIC ([7]; read-out: Ss MIC): 3.3 µM (≈ 4.78 µg/mL); MBC [7]: 3.3 µM (≈ 4.78 µg/mL)
O=C(/C=C/C=C/c1ccccc1)c1ccccc1 [Compound 2, (2E,4E)-1,5-diphenylpenta-2,4-dien-1-one] | 57.2 to 70.9 µM (≈ 13.4 to 16.6 µg/mL) | > 500 µM | > 500 µM | > 500 µM | > 500 µM | 3.2 | > 500 µM | MIC [1]: 57.2 µM (≈ 13.4 µg/mL)
